Assay results published in patent publication US20240002343A1, “COMPOUNDS HAVING INHIBITORY EFFECT ON MITOCHONDRIAL HYPERFISSION” (KYUSHU UNIVERSITY, NATIONAL UNIVERSITY CORPORATION, priority 2020, published 2024).

Tests used:
[1] = system: cardiomyocytes derived from neonatal rats; experiment: Inhibitory effect on mitochondrial hyperfission by hypoxic stimulation; format: cell-based, rat; conditions: 0.3 μM, 1 hour preincubation, 18 hours hypoxic environment; compared with cilnidipine positive control
Procedure: A system for evaluating quantitatively the degree of mitochondrial division in cells was constructed. Specifically, cardiomyocytes derived from neonatal rats were cultured under either normoxia (20%) or hypoxia (1%) for 16 hours. Subsequently, the cells were stained with a fluorescent dye (MitoTracker Green FM, Thermo Fisher Scientific) that selectively stains mitochondria. Then, the mitochondria were observed under a fluorescence microscope, and the mitochondrial morphology was quantitatively measured by image analysis.
FIGS. 2(a) and (b) are each a micrograph and an image explaining a method for quantitatively measuring mitochondrial morphology by image analysis. FIG. 2(a) is a representative fluorescence micrograph showing the general morphology of mitochondria. FIG. 2(b) is an image obtained by filtering the photograph in FIG. 2(a) and extracting the shape of the mitochondria. Image analysis was performed based on the image in FIG. 2(b) to quantify the lengths of mitochondrial fragments. For the quantification, in order to classify the mitochondria into vesicle-shaped, intermediate-shaped and tube-shaped, <3.5 μm is set for vesicle-shaped, 3.6 μm<length<4.2 μm is set for intermediate-shaped, and >4.2 μm is set for tube-shaped, respectively, as thresholds.
The system for evaluation constructed in Test Example 1 was used to evaluate the mitochondrial hyperfission inhibitory effects of the compounds prepared in Examples.
Specifically, at first, each compound was added to the culture medium of cardiomyocytes derived from neonatal rats at a final concentration of 0.3 μM, and the mixture was incubated for 1 hour.
Then, each cells were cultured for an additional 18 hours in a hypoxic environment. Subsequently, mitochondria were stained with MitoTracker Green FM (Thermo Fisher Scientific) or anti-pyruvate dehydrogenase antibody (Abcam) and observed under a fluorescence microscope to quantitatively measure the morphology of mitochondria. For comparison, a group involving cilnidipine as a positive control and a group involving dimethyl sulfoxide (DMSO) as a negative control were also prepared.

calcium channel = experiment: Calcium antagonism (KCl-induced calcium ion influx, Fura 2-AM); format: cell-based, mouse; conditions: Neuro-2a cells; 0, 1, 10, 100 and 1,000 nM, 30 minutes; potassium chloride 60 mM
Procedure: The compounds prepared in Examples were evaluated for calcium channel blocking activity. Specifically, at first, Neuro-2a cells, mouse-derived neuroblastoma cell line, were cultured in a serum-free medium, and Fura 2-AM (Dojindo Laboratories) that is a calcium ion probe, was added to the medium so that it was taken up by the cells.
Subsequently, after replacing the medium with HEPES buffer (pH 7.4), each compound was each added at final concentrations of 0, 1, 10, 100 and 1,000 nM and the mixtures were incubated for 30 minutes.
Then, depolarization stimulation was applied with potassium chloride (final concentration 60 mM), and the influx of calcium ions into the cells was measured by fluorescence microscopy.
FIGS. 4(a) and (b) are graphs that illustrate the results of measurement of increase in intracellular calcium ion concentration induced by potassium chloride stimulation. Δratio on the vertical axis is expressed by formula (F1) below and represents a value that reflects the intracellular calcium ion concentration.
A ratio=(fluorescence intensity at fluorescence wavelength of 510 nm against an excitation wavelength of 340 nm)/(fluorescence intensity at fluorescence wavelength of 510 nm against an excitation wavelength of 380 nm) Formula (F1)

[2] = system: Neonatal rat myocardial cells (NRCM); experiment: Cytoprotective effect against cytotoxicity induced by MeHg and hypotonic stimulation (LDH release assay); format: cell-based; conditions: 1 μM pretreatment 1 hour; 50 nM MeHg, 50% hypotonic solution, 2 days; compared with cilnidipine
Procedure: Neonatal rat myocardial cells (NRCM) were seeded at 2.0×10^5 cells/ml in Matrigel-coated 96-well plates. The NRCMs were pretreated by incubating for 1 hour at 37° C., 5% CO2 with 1 μM of each compound 16c and cilnidipine as a positive control, 1 hour before hypotonic stimulation. To provide hypotonic stimulation, the NRCMs were incubated in isotonic solutions (100% DMEM) or 50% hypotonic solutions (50% DMEM and 50% water) in the presence or absence of 50 nM MeHg that a non-neurotoxic concentration, at 37° C. and 5% CO2 for 2 days. Two days later, cytotoxicity was measured by an LDH release assay using a cytotoxic LDH assay kit (Dojindo).

For `COCCOC(=O)C1=C(C)NC(C)=C(C(=O)Nc2cccc(C(=O)OC(C)(C)C)c2)C1c1ccccc1` (stereo not drawn) [Compound 16c, 2-Methoxyethyl 5-((3-(tert-butoxycarbonyl)phenyl)carbamoyl)-2,6-dimethyl-4-phenyl-1,4-dihydropyridine-3-carboxylate], which “mitochondrial hyperfission inhibitory effect (percentage of cells with vesicle-shaped mitochondria)” value [1] is on record?
The value was “the same as or more effect of cilnidipine”.

And the “Ca2+ antagonism (increase in intracellular calcium ion concentration induced by potassium chloride stimulation)” value (calcium channel)?
The value was “no Ca2+ antagonism”.

What about the “cytoprotective effect against MeHg and hypotonic stimulation (LDH release)” value [2] of the same compound?
The value was “cytoprotective effects against MeHg and hypotonic stimulation similar to those of cilnidipine”.
